Results reported in PMC3918950 (Experimental eye research, 2013).

Assays:
[1] = tested on: Y-79 cells; test: Anti-proliferative activity; assay type: cell-based, human; settings: for IC50: Homo sapiens, Y79, read-out: IC50 against retinoblastoma cells; for Reduction of IC50 value in the presence of moxifloxacin: Y-79, MTT, moxifloxacin 500 µM
[2] = tested on: IL-6; test: Pro-inflammatory cytokines assay, IL-6 release; assay type: cell-based, human; settings: 48 h; for Reduction of IL-6 release in presence of moxifloxacin: moxifloxacin 500 µM
[3] = tested on: IL-8; test: Pro-inflammatory cytokines assay, IL-8 release; assay type: cell-based, human; settings: 48 h; for Reduction of IL-8 release in presence of moxifloxacin: moxifloxacin 500 µM
[4] = target: T1, MDR1 (Homo sapiens, UniProt P08183); test: in vitro; settings: MDCK-MDR1
T1 sequence (P08183 whole entry): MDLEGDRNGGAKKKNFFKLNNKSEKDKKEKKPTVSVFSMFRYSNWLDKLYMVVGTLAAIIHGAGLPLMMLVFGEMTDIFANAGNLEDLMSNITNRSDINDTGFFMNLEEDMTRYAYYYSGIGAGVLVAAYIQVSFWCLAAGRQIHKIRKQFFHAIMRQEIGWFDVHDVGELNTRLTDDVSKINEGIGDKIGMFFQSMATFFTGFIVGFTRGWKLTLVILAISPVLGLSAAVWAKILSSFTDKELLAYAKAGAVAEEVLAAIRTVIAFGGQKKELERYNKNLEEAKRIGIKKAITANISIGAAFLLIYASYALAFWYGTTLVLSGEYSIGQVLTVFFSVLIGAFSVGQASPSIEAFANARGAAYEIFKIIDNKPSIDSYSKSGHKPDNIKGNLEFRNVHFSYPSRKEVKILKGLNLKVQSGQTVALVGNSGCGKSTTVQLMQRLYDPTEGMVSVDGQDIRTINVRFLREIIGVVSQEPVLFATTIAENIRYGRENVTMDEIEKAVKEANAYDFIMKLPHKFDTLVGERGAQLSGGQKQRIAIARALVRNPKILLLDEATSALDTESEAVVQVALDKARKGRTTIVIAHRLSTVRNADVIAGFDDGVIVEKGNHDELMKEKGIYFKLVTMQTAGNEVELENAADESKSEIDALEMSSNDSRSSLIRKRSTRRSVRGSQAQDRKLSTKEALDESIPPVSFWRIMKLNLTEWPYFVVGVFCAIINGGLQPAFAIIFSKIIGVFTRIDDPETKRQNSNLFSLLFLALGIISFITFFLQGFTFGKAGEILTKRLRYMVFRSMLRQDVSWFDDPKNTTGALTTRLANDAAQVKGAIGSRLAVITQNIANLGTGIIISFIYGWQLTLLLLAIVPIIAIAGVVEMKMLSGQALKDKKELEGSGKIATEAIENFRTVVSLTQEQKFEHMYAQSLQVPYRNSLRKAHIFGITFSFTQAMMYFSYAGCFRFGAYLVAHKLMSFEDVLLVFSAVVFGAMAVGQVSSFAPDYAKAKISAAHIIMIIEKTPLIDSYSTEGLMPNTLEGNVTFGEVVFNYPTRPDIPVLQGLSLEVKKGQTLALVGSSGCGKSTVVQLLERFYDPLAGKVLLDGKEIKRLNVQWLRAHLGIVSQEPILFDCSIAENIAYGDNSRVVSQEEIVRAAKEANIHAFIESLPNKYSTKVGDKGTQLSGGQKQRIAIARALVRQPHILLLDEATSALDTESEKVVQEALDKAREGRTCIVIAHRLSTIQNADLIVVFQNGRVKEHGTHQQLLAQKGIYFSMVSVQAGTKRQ

[5] = target: T2, MRP2 (Homo sapiens, UniProt Q92887); test: in vitro; settings: dog
T2 sequence (Q92887 whole entry): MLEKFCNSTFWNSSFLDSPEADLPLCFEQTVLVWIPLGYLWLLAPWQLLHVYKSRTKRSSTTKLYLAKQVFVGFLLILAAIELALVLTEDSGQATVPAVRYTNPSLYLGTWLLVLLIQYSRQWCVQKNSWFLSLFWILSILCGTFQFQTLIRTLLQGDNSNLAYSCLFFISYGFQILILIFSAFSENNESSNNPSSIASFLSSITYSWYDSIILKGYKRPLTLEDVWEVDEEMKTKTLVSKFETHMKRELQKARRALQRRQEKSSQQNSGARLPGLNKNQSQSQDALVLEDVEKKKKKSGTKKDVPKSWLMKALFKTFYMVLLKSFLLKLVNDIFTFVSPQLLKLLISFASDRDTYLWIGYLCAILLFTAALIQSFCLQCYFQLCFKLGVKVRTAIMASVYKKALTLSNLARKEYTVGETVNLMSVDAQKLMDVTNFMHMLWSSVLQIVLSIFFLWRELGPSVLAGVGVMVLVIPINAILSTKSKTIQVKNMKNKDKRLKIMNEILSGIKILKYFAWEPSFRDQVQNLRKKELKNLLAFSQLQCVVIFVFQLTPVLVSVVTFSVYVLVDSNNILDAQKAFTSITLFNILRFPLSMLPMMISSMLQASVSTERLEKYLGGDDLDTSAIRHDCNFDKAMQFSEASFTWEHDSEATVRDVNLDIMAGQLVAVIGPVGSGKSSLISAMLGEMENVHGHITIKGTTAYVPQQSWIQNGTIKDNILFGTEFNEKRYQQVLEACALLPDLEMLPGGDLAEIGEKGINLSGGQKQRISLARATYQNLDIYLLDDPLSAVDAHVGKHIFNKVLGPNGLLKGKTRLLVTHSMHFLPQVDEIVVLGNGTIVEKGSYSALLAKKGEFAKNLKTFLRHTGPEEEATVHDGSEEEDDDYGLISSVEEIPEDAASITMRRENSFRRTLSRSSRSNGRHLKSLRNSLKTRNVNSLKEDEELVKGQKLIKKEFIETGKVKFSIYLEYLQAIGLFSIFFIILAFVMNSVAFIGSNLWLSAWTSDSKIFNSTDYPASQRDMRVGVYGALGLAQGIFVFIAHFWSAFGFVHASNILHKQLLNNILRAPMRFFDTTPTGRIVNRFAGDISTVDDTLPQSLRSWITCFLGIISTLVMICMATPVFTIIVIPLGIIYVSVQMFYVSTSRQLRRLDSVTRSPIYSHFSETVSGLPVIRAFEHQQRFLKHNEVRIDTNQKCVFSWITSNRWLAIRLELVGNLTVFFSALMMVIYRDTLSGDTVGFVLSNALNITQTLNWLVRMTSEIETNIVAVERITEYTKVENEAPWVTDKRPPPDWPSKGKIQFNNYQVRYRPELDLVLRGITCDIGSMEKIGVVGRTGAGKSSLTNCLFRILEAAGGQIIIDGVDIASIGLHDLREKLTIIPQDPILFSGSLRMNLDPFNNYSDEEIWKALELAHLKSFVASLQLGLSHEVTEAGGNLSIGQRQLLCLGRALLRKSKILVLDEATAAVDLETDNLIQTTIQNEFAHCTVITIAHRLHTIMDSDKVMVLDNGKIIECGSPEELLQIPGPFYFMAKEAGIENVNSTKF

[6] = target: T2, MRP2; settings: MDCK-MRP2; [14C]-erythromycin 0.25 µCi/mL; 30 min; in presence of MK571 50 µM
[7] = target: T2, MRP2; test: Bi-directional transport of moxifloxacin across MDCK-MRP2 cells; assay type: in vitro ADME
[8] = tested on: caspase-3; test: Caspase-3 assay in Y-79 cells; assay type: cell-based, human
[9] = target: T1, MDR1
[10] = target: T1, MDR1; test: in vitro; settings: MDCK-MDR1, pH 7.4
[11] = in vitro; settings: dog, MDCK, pH 7.4
[12] = target: T1, MDR1; test: cell-based
[13] = target: T2, MRP2; test: cell-based
[14] = target: T1, MDR1; test: Bidirectional transport of anticancer agents across MDCK-MDR1 cells; settings: moxifloxacin 500 µM
[15] = target: T2, MRP2; test: Bidirectional transport of anticancer agents across MDCK-MRP2 cells; settings: moxifloxacin 500 µM
[16] = target: T1, MDR1; test: Bi-directional transport of [14C]-erythromycin across MDCK-MDR1 cells; assay type: in vitro ADME; settings: MDCK-MDR1, pH 7.4
[17] = target: T2, MRP2; test: Bi-directional transport of [14C]-erythromycin across MDCK-MRP2 cells; assay type: in vitro ADME; settings: pH 7.4
[18] = tested on: caspase-3; settings: read-out: Km (caspase-3 substrate); ref Anaspec, San Jose, CA; cited from earlier work
[19] = conclusion from uptake and bi-directional transport

Compound	IC50 [1]	Reduction of IC50 value in the presence of moxifloxacin [1]	Release of IL-6 ([2]; anticancer agent 0.5 µg alone)	Reduction of IL-6 release in presence of moxifloxacin ([2]; anticancer agent 0.5 µg)	Release of IL-6 ([2]; anticancer agent 1.0 µg alone)	Reduction of IL-6 release in presence of moxifloxacin ([2]; anticancer agent 1.0 µg)	Release of IL-8 ([3]; anticancer agent 0.5 µg alone)	Reduction of IL-8 release in presence of moxifloxacin ([3]; anticancer agent 0.5 µg)	Release of IL-8 ([3]; anticancer agent 1.0 µg alone)	Reduction of IL-8 release in presence of moxifloxacin ([3]; anticancer agent 1.0 µg)	Papp A→B at 0.5 µCi/mL [4]	Papp B→A at 0.5 µCi/mL [4]	Papp A→B at 0.5 µCi/mL [5]	Papp B→A at 0.5 µCi/mL [5]	also measured
COc1cc([C@@H]2c3cc4c(cc3[C@@H](O[C@@H]3O[C@@H]5CO[C@@H](C)O[C@H]5[C@H](O)[C@H]3O)[C@H]3COC(=O)[C@H]23)OCO4)cc(OC)c1O [Etoposide]	27.1 µM	13 fold	105.20 ± 3.90 pg/mL	1.3 fold	151.40 ± 10.00 pg/mL	1.4 fold	191.90 ± 9.10 pg/mL	1.60 fold	286.60 ± 16.60 pg/mL	1.28 fold	3.57 ± 0.65 ×10⁻⁶ cm/s	11.6 ± 1.78 ×10⁻⁶ cm/s	37.8 ± 2.7 ×10⁻⁶ cm/s	207 ± 17.4 ×10⁻⁶ cm/s	
CN(C)C(=O)CCSC(SCCC(=O)O)c1cccc(/C=C/c2ccc3ccc(Cl)cc3n2)c1 (centres unmarked) [MK571]															Cellular accumulation of [14C]-erythromycin relative to control [6]: 273%
COc1c(N2C[C@@H]3CCCN[C@@H]3C2)c(F)cc2c(=O)c(C(=O)O)cn(C3CC3)c12 [Moxifloxacin]															Increase of AP-BL permeability of moxifloxacin ([7]; MDCK-MRP2, in presence of MK571): 2.10 times; Substrate of MRP2 efflux transporter [7, 19]: substrate; Papp A→B at 500 µM ([7]; human, pH 7.4): 0.78 ± 0.13 ×10⁻⁶ cm/s; Papp B→A at 500 µM ([7]; human, pH 7.4): 1.97 ± 0.41 ×10⁻⁶ cm/s; Caspase-3 activity, moxifloxacin alone [8]: slightly elevated; Increase of AP-BL permeability of moxifloxacin ([9]; MDCK-MDR1, in presence of GF120918): 2.80 times; Substrate of MDR1 efflux transporter [9, 19]: substrate; Papp A→B at 500 µM [10]: 5.81 ± 0.44 ×10⁻⁶ cm/s; Papp B→A at 500 µM [10]: 20.5 ± 2.26 ×10⁻⁶ cm/s; Papp A→B at 500 µM [11]: 5.7 ± 0.04 ×10⁻⁶ cm/s; Papp B→A at 500 µM [11]: 7.4 ± 0.14 ×10⁻⁶ cm/s; IC50 [12]: 217 µM; IC50 [13]: 187 µM
CC[C@@]1(O)C(=O)OCc2c1cc1n(c2=O)Cc2cc3c(CN(C)C)c(O)ccc3nc2-1 [Topotecan]	27.9 µM	10 fold	156.90 ± 2.70 pg/mL	1.3 fold	157.50 ± 8.80 pg/mL	1.2 fold	157.70 ± 12.60 pg/mL	1.48 fold	239.20 ± 13.90 pg/mL	1.30 fold	0.75 ± 0.03 ×10⁻⁶ cm/s	3.5 ± 0.28 ×10⁻⁶ cm/s	8.06 ± 0.66 ×10⁻⁶ cm/s	24.8 ± 2.44 ×10⁻⁶ cm/s	efflux ratio at 0.5 µCi/mL [4]: 4.63; efflux ratio at 0.5 µCi/mL [5]: 3.07; Elevation of AP-BL permeability by moxifloxacin [14]: 2.08 fold; Elevation of AP-BL permeability by moxifloxacin [15]: 1.57 fold
CC[C@]1(O)C[C@@H]2CN(CCc3c([nH]c4ccccc34)[C@@](C(=O)OC)(c3cc4c(cc3OC)N(C)[C@H]3[C@@](O)(C(=O)OC)[C@H](OC(C)=O)[C@]5(CC)C=CCN6CC[C@]43[C@@H]65)C2)C1 [Vinblastine]	0.0519 µM	2 fold	52.90 ± 4.30 pg/mL	1.11 fold	73.60 ± 2.30 pg/mL	1.42 fold	140.20 ± 14.40 pg/mL	1.40 fold	284.90 ± 18.00 pg/mL	1.08 fold	1.55 ± 0.03 ×10⁻⁶ cm/s	10.2 ± 0.47 ×10⁻⁶ cm/s	13.5 ± 3.24 ×10⁻⁶ cm/s	73.8 ± 8.16 ×10⁻⁶ cm/s	Elevation of AP-BL permeability by moxifloxacin [14]: 2.55 fold
CC[C@H]1OC(=O)[C@H](C)[C@@H](O[C@H]2C[C@@](C)(OC)[C@@H](O)[C@H](C)O2)[C@H](C)[C@@H](O[C@@H]2O[C@H](C)C[C@H](N(C)C)[C@H]2O)[C@](C)(O)C[C@@H](C)C(=O)[C@H](C)[C@@H](O)[C@]1(C)O [[^14C]-erythromycin, Erythromycin]															Papp A→B at 3 h, 0.5 µCi/mL [16]: 5.44 ± 0.52 ×10⁻⁶ cm/s; Papp B→A at 3 h, 0.5 µCi/mL [16]: 18.8 ± 1.05 ×10⁻⁶ cm/s; Papp B→A at 3 h, 0.5 µCi/mL [17]: 2.7 ± 0.18 ×10⁻⁶ cm/s
Ac-DEVD-AMC															Km [18]: 9.7 µM
